Marks after values point to notes of the source that are not given here.
Tests used:
naïve WT C57BL/6 mice = test: Hypoferremia in naïve mice; format: in vivo, mouse; details: for inhibition in vivo at 10 mg/kg / inhibition in vivo at 30 mg/kg / inhibition in vivo at 100 mg/kg: Mus musculus, po, 3 h, naïve WT C57BL/6 mice, relative to vehicle, read-out: Serum Iron Reduction at 3 h (%); for inhibition in vivo at 10 mg/kg: Dose 10 mg/kg p.o.; for inhibition in vivo at 30 mg/kg: Dose 30 mg/kg p.o.; for inhibition in vivo at 100 mg/kg: Dose 100 mg/kg p.o.
Method: Female C57BL/6 mice (Janvier, France) at age of 9 weeks were fed a standard diet (Harlan Provimi Kliba 3436) and treated per os (p.o.) with compounds or the corresponding amount of vehicle at a volume of 10 ml/kg body weight. Fpn inhibitors were formulated in 0.5% methylcellulose/water or 20% cremophor EL/water and dosed p.o. in mice at 10, 30 or 100 mg/kg body weight. Three hours later, mice were pre terminally anesthetized in isoflurane chambers and blood was collected by retro-orbital bleeding. Mice were sacrificed by cervical dislocation and spleens, livers and duodena were harvested and used for biomarker analysis. All experiments have been conducted in compliance with the license approved by the responsible veterinarian authorities. Serum was isolated by centrifugation of blood into gel-containing microtainers and serum iron was determined by the MULTIGENT Iron assay (Abbott Diagnostics, 6K95). Eight mice per group were used and one-way ANOVA with Bonferroni's multiple comparison test was performed to analyze the statistical differences between the experimental groups.

b2m−/− mice [1] = test: Correction of hyperferremia in beta2-microglobulin deficient mice; format: in vivo, mouse; details: for Serum Iron Reduction (%): blood collected 3 hours (##) after administration
Text: Mutations in genes involved in sensing the systemic iron stores, such as hepcidin (Hamp1), hemochromatosis protein (HFE), hemojuvelin (HJV) and transferrin receptor 2 (TFR2) cause iron overload in mice and men. HFE, HJV and TFR2 molecules on hepatocytes are necessary for signaling of appropriate hepcidin production and their deficiency results in pathophysiologically low hepcidin levels and excessive iron absorption. HFE mutations is the most frequent cause of hereditary hemochromatosis (HH) in Caucasian adults. HFE is a MHC class I-like membrane molecule that associates with beta 2-microglobulin and participates in hepcidin transcriptional regulation through the bone morphogenetic protein receptor (BMPR) pathway. HFE−/− mice have decreased hepcidin levels, develop hyperferremia and high hepatic iron levels, which makes them a suitable animal model for studying iron overload in humans (Zhou, 1998). Mice deficient in beta 2-microglobulin (b2m−/−) develop hyperferremia and hemochromatosis similarly to HFE−/− animals, as beta 2-microglobulin is necessary for the cell-surface expression and function of HFE (Rothenberg and Voland, 1996). Due to the unavailability of HFE−/− mice, b2m−/− mice were used as a model of iron overload.
Female and male homozygous b2m−/− mice were supplied from Jackson Laboratories (B6.129P2-B2mtm1Unc/J, Stock Number: 002087) at age of 6 to 7 weeks and fed standard diet (Harlan Provimi Kliba 3436) ad libitum. Age and gender matched WT C57BL/6 mice were supplied by Charles River. To study the acute effects of ferroportin (Fpn) inhibitors in iron overload b2m−/− mice were treated with compounds or the corresponding amount of vehicle at a volume of 10 ml/kg body weight. […] WT controls received only vehicle. Three hours later, mice were pre-terminally anesthetized in isoflurane chambers and blood was collected by retro-orbital bleeding. Mice were sacrificed by cervical dislocation and spleens, livers and duodena were harvested and used for biomarker analysis. All experiments have been performed in compliance with license approved by the responsible veterinarian authorities. Serum was isolated by centrifugation of blood into gel-containing microtainers (BD Biosciences) and serum iron was determined by the MULTIGENT Iron assay (Abbott Diagnostics, Cat. 6K95). Four to nine mice per group were used and one-way ANOVA with Bonferroni's multiple comparison test was applied to analyze the statistical differences between the experimental groups.

b2m−/− mice [2] = test: Prevention of iron overload in beta2-microglobulin deficient mice; format: in vivo, mouse; details: 14 day treatment; for Total Liver Iron Reduction (%) / Total Spleen Iron Increase (%): ICP-OES; for 58Fe Liver Iron Reduction (%): ICP-MS
Method: The efficacy of the Fpn inhibitors to prevent liver iron accumulation in b2m−/− mice was investigated. Three weeks old b2−/− mice fed LID were dosed with either Fpn inhibitor or vehicle (methylcellulose; 10 ml/kg). Mice had access to drinking water supplemented with 1 mM^58Fe(II)-sulfate and 10 mM ascorbic acid. Dosing of Fpn inhibitor or vehicle followed by exposure to iron-containing water was repeated for 14 days. Mice were euthanized and the liver and spleen iron contents were analyzed by ICP-OES (all iron isotopes) and liver tissue was also analyzed for ^58Fe concentration (ICP-MS).

ferroportin = biological target: T1, ferroportin (Homo sapiens, UniProt Q9NP59); test: Inhibition of Iron Efflux by Ferroportin Inhibitors; format: cell-based; details: T47D cells, 58Fe in supernatant, 20 h; representative (FIG. 2)
T1 construct: host or cells: T47D cells
T1 sequence (Q9NP59 1-571): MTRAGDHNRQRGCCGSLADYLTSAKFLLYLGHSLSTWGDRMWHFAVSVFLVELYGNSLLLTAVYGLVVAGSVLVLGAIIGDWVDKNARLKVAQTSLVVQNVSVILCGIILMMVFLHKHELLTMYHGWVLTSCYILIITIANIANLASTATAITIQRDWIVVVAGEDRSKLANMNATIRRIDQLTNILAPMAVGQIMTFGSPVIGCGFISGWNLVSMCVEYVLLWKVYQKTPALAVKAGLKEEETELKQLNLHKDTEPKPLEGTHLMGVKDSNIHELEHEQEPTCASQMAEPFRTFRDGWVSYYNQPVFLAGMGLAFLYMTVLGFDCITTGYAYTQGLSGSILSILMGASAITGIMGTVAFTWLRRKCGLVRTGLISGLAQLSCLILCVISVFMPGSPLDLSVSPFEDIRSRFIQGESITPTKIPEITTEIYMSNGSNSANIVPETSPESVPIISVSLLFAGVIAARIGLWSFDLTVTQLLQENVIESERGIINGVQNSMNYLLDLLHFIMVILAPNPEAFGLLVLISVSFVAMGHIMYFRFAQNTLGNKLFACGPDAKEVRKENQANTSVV
Method: The activity of hepcidin and ferroportin inhibitor compounds regarding their ability to block iron export via ferroportin was tested on T47D cells (ECACC, Cat. 85102201) as described below.
Cells were plated in 24-well plates (Greiner, Cat. 662160) containing 350,000 cells/well and incubated overnight with 100 μM ^58Fe (^58Fe(II)-Sulfate, Vifor Pharma Batch No. ROR 3085) in 500 μM L-Ascorbic Acid (Sigma Aldrich, Cat. 795437) containing growth medium. […] A serial dilution of hepdicin (Bachem) or ferroportin inhibitors (4 μM-0.0064 μM, 5 fold dilution) was added in a total volume of 0.6 ml per well. Cells were incubated at 37° C. with 5% CO2 for 20 h. Supernatants were collected and ^58Fe was measured using inductively coupled plasma mass spectrometry (ICP-MS, Thermo Scientific, Element 2). Pellets were harvested for protein concentration measurements. Results are plotted as ng^58Fe in supernatant per mg protein in cell lysates.

[3] = injection of synthetic hepcidin in WT naïve mice (Rivera, 2005; FIG. 3A)

Compound | inhibition in vivo at 10 mg/kg (naïve WT C57BL/6 mice) [%] | inhibition in vivo at 30 mg/kg (naïve WT C57BL/6 mice) [%] | inhibition in vivo at 100 mg/kg (naïve WT C57BL/6 mice) [%] | other results
O=C(NCc1ccccn1)c1csc(CCNCc2nc3ccccc3[nH]2)n1 [Example 12] | 15 | 20 | 45 | 
O=C(NC1CCc2cccnc21)c1csc(CCNCc2nc3ccccc3[nH]2)n1 (stereo not shown) [Example 39] | 10 | 20 | 35 | 
Cc1cnccc1CNC(=O)c1csc(CCNCc2nc3ccccc3[nH]2)n1 [Example 90] | 0 | 0 | 40 | 
O=C(NCc1ncccc1F)c1csc(CCNCCc2nc3ccccc3[nH]2)n1 [Example 94] | 30 | 50 | 80 | correction of elevated serum iron (b2m−/− mice [1]; b2m−/− mice, 50 mg/kg p.o. for 3 h (FIG. 5)): corrected the elevated serum iron to the levels observed in WT controls; Total Liver Iron Reduction (%) (b2m−/− mice [2]; female, 60 mg/kg p.o. b.i.d.): 57%; Total Spleen Iron Increase (%) (b2m−/− mice [2]; female, 60 mg/kg p.o. b.i.d.): 65%; Total Liver Iron Reduction (%) (b2m−/− mice [2]; male, 60 mg/kg p.o. b.i.d.): 79%
O=C(NCc1ncccc1F)c1csc(CNCCc2nc3ccccc3[nH]2)n1 [Example 118] | 8 | 24 | 49 | 
O=C(NCc1ncccc1F)c1coc(CCNCc2nc3ccccc3[nH]2)n1 [Example 126] | 7 | 23 | 62 | 
O=C(NCc1ccccn1)c1coc(CCNCc2nc3ccccc3[nH]2)n1 [Example 137] | -2 | 14 | 25 | 
O=C(NCc1ncccc1F)c1nc(CCNCCc2nc3ccccc3[nH]2)sc1Cl [Example 154] | 13 | 35 | 56 | 
O=C(NCc1ncccc1F)c1coc(C2CN(CCc3nc4ccccc4[nH]3)C2)n1 [Example 208] | 50 | 65 | 73 | Serum Iron Reduction (%) (b2m−/− mice [1]; female, Dose 20 mg/kg oral): 9%; Serum Iron Reduction (%) (b2m−/− mice [1]; female, Dose 60 mg/kg oral): 49*** %; Serum Iron Reduction (%) (b2m−/− mice [1]; male, Dose 20 mg/kg oral): 44%; Serum Iron Reduction (%) (b2m−/− mice [1]; male, Dose 60 mg/kg oral): 67** %; 58Fe Liver Iron Reduction (%) (b2m−/− mice [2]; female, 20 mg/kg p.o. b.i.d.): 71* %; Total Liver Iron Reduction (%) (b2m−/− mice [2]; female, 20 mg/kg p.o. b.i.d.): 15%; Total Spleen Iron Increase (%) (b2m−/− mice [2]; female, 20 mg/kg p.o. b.i.d.): 56** %; 58Fe Liver Iron Reduction (%) (b2m−/− mice [2]; female, 60 mg/kg p.o. b.i.d.): 87** %; Total Liver Iron Reduction (%) (b2m−/− mice [2]; female, 60 mg/kg p.o. b.i.d.): 8%; Total Spleen Iron Increase (%) (b2m−/− mice [2]; female, 60 mg/kg p.o. b.i.d.): 150*** %; 58Fe Liver Iron Reduction (%) (b2m−/− mice [2]; male, 20 mg/kg p.o. b.i.d.): 58%; Total Spleen Iron Increase (%) (b2m−/− mice [2]; male, 20 mg/kg p.o. b.i.d.): 21%; 58Fe Liver Iron Reduction (%) (b2m−/− mice [2]; male, 60 mg/kg p.o. b.i.d.): 94** %; Total Liver Iron Reduction (%) (b2m−/− mice [2]; male, 60 mg/kg p.o. b.i.d.): 84** %; Total Spleen Iron Increase (%) (b2m−/− mice [2]; male, 60 mg/kg p.o. b.i.d.): 43%
O=C(NCc1ncccc1F)c1coc(CCNCCc2nc3c(F)cccc3[nH]2)n1 [Example 228] | 13 | 26 | 55 | 
O=C(NCc1ncccc1F)c1coc(C2CN(CCc3nc4c(F)cccc4[nH]3)C2)n1 [Example 239] | 12 | 20 | 51 | 
O=C(NCc1ncccc1F)c1coc(CCNCCc2nc3cc(F)ccc3[nH]2)n1 [Example 250] | 5 | 18 | 40 | 
O=C(NCc1ncccc1F)c1cncc(C2CN(CCc3nc4ccccc4[nH]3)C2)c1 [compound 237] | 0 | 15 | 27 | 
CC[C@H](C)[C@@H]1NC(=O)[C@@H](NC(=O)[C@@H](NC(=O)[C@@H]2CCCN2C(=O)[C@H](Cc2ccccc2)NC(=O)[C@H](Cc2c[nH]cn2)NC(=O)[C@@H](NC(=O)[C@@H](N)CC(=O)O)[C@@H](C)O)[C@@H](C)CC)CSSC[C@@H](C(=O)N[C@@H](CCCCN)C(=O)N[C@H](C(=O)O)[C@@H](C)O)NC(=O)[C@@H]2CSSC[C@@H]3NC(=O)[C@@H]4CSSC[C@H](NC(=O)[C@H](Cc5ccccc5)NC1=O)C(=O)N[C@@H](CSSC[C@H](NC(=O)[C@H](CCCCN)NC(=O)[C@H](CO)NC(=O)[C@H](CCCNC(=N)N)NC(=O)[C@H](Cc1c[nH]cn1)NC3=O)C(=O)NCC(=O)N[C@@H](CCSC)C(=O)N2)C(=O)NCC(=O)N4 [hepcidin, reference compound] |  |  |  | IC50 (ferroportin): 86 nM; reduction of serum iron levels from the vehicle control (naïve WT C57BL/6 mice; [3]): 40-50%; time of maximal effect on serum iron post treatment (naïve WT C57BL/6 mice; [3]): 3 to 4 h
